Reference: PubChem BioAssay (NCI)
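Results reflect a 48-hour exposure of cells in 96-well plates to compound at five concentrations. Definition used: TGI = concentration required for complete inhibition of growth.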

Experiments:
Assay in all cases: NCI anticancer screen, dose series, 48 h
[1] = tested on: BT-549 breast
[2] = tested on: MOLT-4 leukemia
[3] = tested on: UO-31 renal
[4] = tested on: OVCAR-3 ovarian
[5] = tested on: NCI-H23 lung
[6] = tested on: SN12C renal
[7] = tested on: SF-295 CNS
[8] = tested on: MCF7 breast
[9] = tested on: RXF 393 renal
[10] = tested on: SK-MEL-28 melanoma
[11] = tested on: IGROV1 ovarian
[12] = tested on: SF-268 CNS
[13] = tested on: HOP-62 NSCLC
[14] = tested on: SK-MEL-2 melanoma
[15] = tested on: HOP-92 NSCLC
[16] = tested on: MDA-MB-231 breast
[17] = tested on: CCRF-CEM leukemia
[18] = tested on: HT29 colon
[19] = tested on: EKVX NSCLC
[20] = tested on: NCI/ADR-RES ovarian
[21] = tested on: DU-145 prostate
[22] = tested on: OVCAR-8 ovarian
[23] = tested on: RPMI-8226 leukemia
[24] = tested on: ACHN renal
[25] = tested on: SK-OV-3 ovarian
[26] = tested on: SF-539 CNS
[27] = tested on: OVCAR-5 ovarian
[28] = tested on: A549 NSCLC
[29] = tested on: U251 CNS
[30] = tested on: SW-620 colon
[31] = tested on: SK-MEL-5 melanoma
[32] = tested on: COLO 205 colon
[33] = tested on: HCT-116 colon
[34] = tested on: LOX IMVI melanoma
[35] = tested on: PC-3 prostate
[36] = tested on: SNB-75 CNS
[37] = tested on: M14 melanoma
[38] = tested on: MDA-N
[39] = tested on: K-562 leukemia
[40] = tested on: HCC-2998 colon
[41] = tested on: TK-10 renal
[42] = tested on: SR leukemia
[43] = tested on: UACC-257 melanoma
[44] = tested on: NCI-H226 lung
[45] = tested on: OVCAR-4 ovarian
[46] = tested on: T-47D breast
[47] = tested on: UACC-62 melanoma
[48] = tested on: NCI-H460 lung
[49] = tested on: CAKI-1 renal
[50] = tested on: KM12 colon
[51] = tested on: MDA-MB-435
[52] = tested on: SNB-19 CNS
[53] = tested on: NCI-H522 lung
[54] = tested on: HS 578T breast
[55] = tested on: MALME-3M melanoma
[56] = tested on: 786-0 renal
[57] = tested on: HCT-15 colon
[58] = tested on: HL-60(TB) leukemia

SMILES: COC(=O)N1CC2C3C4CC(C(c5ccccc5)=C4c4ccccc4)C3C21 (stereo not drawn)
- TGI [1]: 31.4 µM
- TGI [2]: 38.6 µM
- TGI [3]: 26 µM
- TGI [4]: 36.7 µM
- TGI [5]: 98.1 µM
- TGI [6]: 33.1 µM
- TGI [7]: 32.4 µM
- TGI [8]: 78.3 µM
- TGI [9]: 39.9 µM
- TGI [10]: 35.4 µM
- TGI [11]: 45.6 µM
- TGI [12]: 33.7 µM
- TGI [13]: 42.5 µM
- TGI [14]: 50.5 µM
- TGI [15]: 24.5 µM
- TGI [16]: 22.3 µM
- TGI [17]: 43.4 µM
- TGI [18]: 37.7 µM
- TGI [19]: 36.7 µM
- TGI [20]: 35.4 µM
- TGI [21]: 34.5 µM
- TGI [22]: 35.7 µM
- TGI [23]: 53.4 µM
- TGI [24]: 52.3 µM
- TGI [25]: 70.2 µM
- TGI [26]: 32 µM
- TGI [27]: 91.2 µM
- TGI [28]: 73.1 µM
- TGI [29]: 27.5 µM
- TGI [30]: 40.4 µM
- TGI [31]: 25.9 µM
- TGI [32]: 45.2 µM
- TGI [33]: 25.7 µM
- TGI [34]: 25.6 µM
- TGI [35]: 69.3 µM
- TGI [36]: 76.4 µM
- TGI [37]: 51.9 µM
- TGI [38]: 46.5 µM
- TGI [39]: > 100 µM
- TGI [40]: 31.5 µM
- TGI [41]: 30.8 µM
- TGI [42]: 51.1 µM
- TGI [43]: 28.9 µM
- TGI [44]: 29.6 µM
- TGI [45]: 29.5 µM
- TGI [46]: 32.9 µM
- TGI [47]: 27 µM
- TGI [48]: 32.2 µM
- TGI [49]: 32.8 µM
- TGI [50]: 34.2 µM
- TGI [51]: 32.8 µM
- TGI [52]: 57.5 µM

SMILES: Cc1ccc(/C=N/Nc2ccc3ccccc3n2)s1
- TGI [1]: 68.7 µM
- TGI [2]: > 100 µM
- TGI [3]: > 100 µM
- TGI [4]: 28.9 µM
- TGI [5]: > 100 µM
- TGI [6]: 28.4 µM
- TGI [7]: 38.4 µM
- TGI [8]: 45.1 µM
- TGI [9]: > 100 µM
- TGI [10]: 55.9 µM
- TGI [11]: 53.8 µM
- TGI [12]: > 100 µM
- TGI [13]: 41.1 µM
- TGI [14]: > 100 µM
- TGI [15]: 78.3 µM
- TGI [16]: 65.9 µM
- TGI [17]: > 100 µM
- TGI [18]: 44 µM
- TGI [53]: 77.8 µM
- TGI [54]: > 100 µM
- TGI [19]: 32.2 µM
- TGI [20]: > 100 µM
- TGI [55]: 41.2 µM
- TGI [22]: > 100 µM
- TGI [56]: 35.8 µM
- TGI [23]: 86.9 µM
- TGI [24]: 39.9 µM
- TGI [25]: > 100 µM
- TGI [26]: > 100 µM
- TGI [27]: > 100 µM
- TGI [28]: 40 µM
- TGI [29]: 67.6 µM
- TGI [30]: 92.1 µM
- TGI [31]: 30.7 µM
- TGI [32]: 31.1 µM
- TGI [57]: > 100 µM
- TGI [33]: 24 µM
- TGI [34]: 36.5 µM
- TGI [35]: 31.5 µM
- TGI [36]: > 100 µM
- TGI [37]: 58.8 µM
- TGI [38]: 29.2 µM
- TGI [39]: > 100 µM
- TGI [40]: 30.7 µM
- TGI [41]: > 100 µM
- TGI [42]: > 100 µM
- TGI [43]: > 100 µM
- TGI [44]: > 100 µM
- TGI [58]: > 100 µM
- TGI [45]: > 100 µM
- TGI [46]: > 100 µM
- TGI [47]: > 100 µM
- TGI [49]: > 100 µM
- TGI [50]: > 100 µM
- TGI [51]: 56.7 µM
- TGI [52]: 59 µM
